From US20260217692A1 (Ascentage Pharma (Suzhou) Co., Ltd., priority 2023, published 2026)
Several values for one entry are separate records, joined by “and”; a condition that tells them apart may be missing. Identical values can stand only once. Counter-ions that a name gives are not always drawn.

Key:
Format in all cases: physicochemical
[1] = Dynamic vapor sorption (DVS) hygroscopicity test; conditions: 25° C. and 80% RH
Text: In the present disclosure, the DVS test parameters are set as follows: [table]

[2] = Polymorph screening test, suspension method (crystal form by XRPD after stirring in solvent); conditions: for Crystal form (XRPD) / Crystal form (XRPD)/85° C.: mesylate screening, 3 days
Description: (or 50° C.) for 3 days in the dark and centrifuged to remove the supernatant; the resulting precipitate was dried under vacuum (25° C., −0.1 MPa); and the resulting solid was collected and subjected to the XRPD test. The results are as follows:
(or 50° C./80° C.) for 3 days in the dark and centrifuged to remove the supernatant; and the resulting precipitate was dried under vacuum (25° C., −0.1 MPa).
(or 50° C.) for 3 days in the dark and centrifuged to remove the supernatant; and the resulting precipitate was dried under vacuum (25° C., −0.1 MPa).

[3] = Polymorph screening test, diffusion method (crystal form by XRPD); conditions: mesylate screening, diffusion at room temperature
[4] = Stability of crystal forms under stability test conditions (appearance, XRPD, HPLC)
Description: The samples were placed under the stability conditions shown in the following table, sampling was performed at the corresponding time points, and the samples were subjected to appearance and XRPD tests. […] The stability results obtained are recorded in the following table. […] The samples were placed under the stability test conditions shown in the following table, sampling was performed at different time points, and the samples were subjected to the XRPD test. […] The samples were placed in an open state under the stability test conditions of 40° C./75% RH and 90% RH; and the samples were placed in a closed state at 60° C. in a light box (the test samples in the dark were placed in the same manner as the illumination test samples, and the treatment was performed in the dark). Sampling was performed at different time points, and the samples were subjected to the XRPD test. […] The samples were placed under the stability conditions shown in the following table, sampling was performed at the corresponding time points, and the samples were subjected to appearance and XRPD tests. […] The stability results obtained are recorded in the following table.

[5] = Solubility of mesylate crystal form A in buffers with different pH values at 37° C.
Description: Suspension states at 15 min, 2 h, 4 h, and 24 h were recorded; and different sample solutions at 15 min, 2 h, 4 h, and 24 h were collected and added to 1.5 mL centrifuge tubes. The suspensions were centrifuged at 12000 rpm for 2 min to obtain supernatants, and the supernatants were subjected to 2-fold dilution to obtain the sample solutions (the solutions were subjected to 10-fold dilution if the samples were dissolved completely). The residual substrates were centrifuged and subjected to the XRPD test.

[6] = Polymorph screening test, suspension method (crystal form by XRPD after stirring in solvent); conditions: mesylate screening, suspension in Toluene, 3 days

- hygroscopic weight gain (DVS curve) [1]: 0.31±0.005% and 0.31%
- stability of crystal form in solvent, suspension method ([2]; ethanol, isopropanol, ethyl acetate, isopropyl acetate, methyl tert-butyl ether, tetrahydrofuran, N-methylpyrrolidone, methyl acetate, 2-methyltetrahydrofuran, cyclohexane, n-hexane, toluene, or n-heptane): relatively good stability
- crystal form when stirred in solvent ([2]; ethanol, isopropanol, ethyl acetate, isopropyl acetate, methyl tert-butyl ether, tetrahydrofuran, N-methylpyrrolidone, methyl acetate, 2-methyltetrahydrofuran, cyclohexane, n-hexane, toluene, or n-heptane at 25-50° C.): remained stable
- Crystal form (XRPD) ([2]; suspension in 1,4-Dioxane, 25° C.): Crystal form A
- Crystal form (XRPD) ([2]; suspension in 1,4-Dioxane, 50° C.): Crystal form E
- Crystal form (XRPD) ([2]; suspension in Acetone-water 1:1, 25° C.): Clear solution
- Crystal form (XRPD) ([2]; suspension in Acetone-water 1:1, 50° C.): Clear solution
- Crystal form (XRPD) ([2]; suspension in Acetonitrile-water 1:1, 25° C.): Clear solution
- Crystal form (XRPD) ([2]; suspension in Acetonitrile-water 1:1, 50° C.): Clear solution
- Crystal form (XRPD) ([2]; suspension in Dichloromethane, 25° C.): No solid sample
- Crystal form (XRPD) ([2]; suspension in Dichloromethane, 50° C.): No solid sample
- Crystal form (XRPD) ([2]; suspension in Dichloromethane/acetone (v/v, 1:1), 25° C.): Crystal form A
- Crystal form (XRPD) ([2]; suspension in Dichloromethane/acetone (v/v, 1:1), 50° C.): No solid sample
- Crystal form (XRPD) ([2]; suspension in Dichloromethane/methanol (v/v, 1:1), 25° C.): Clear solution
- Crystal form (XRPD) ([2]; suspension in Dichloromethane/methanol (v/v, 1:1), 50° C.): No solid sample
- Crystal form (XRPD)/85° C. ([2]; suspension in Dioxane): Crystal form A
- Crystal form (XRPD)/85° C. ([2]; suspension in MIBK): Crystal form A
- Crystal form (XRPD) ([2]; suspension in Methanol-water 1:1, 25° C.): Crystal form B
- Crystal form (XRPD) ([2]; suspension in Methanol-water 1:1, 50° C.): Clear solution
- Crystal form (XRPD) ([2]; suspension in Methyl tert-butyl ether, 25° C.): Crystal form A
- Crystal form (XRPD) ([2]; suspension in Methyl tert-butyl ether, 50° C.): Crystal form A
- Crystal form (XRPD) ([2]; suspension in Tetrahydrofuran, 25° C.): Crystal form A
- Crystal form (XRPD) ([2]; suspension in Tetrahydrofuran, 50° C.): Crystal form A
- Crystal form (XRPD) ([2]; suspension in Toluene, 25° C.): Crystal form A
- Crystal form (XRPD) ([2]; suspension in Toluene, 50° C.): Crystal form A
- Crystal form (XRPD) ([2]; suspension in Water, 25° C.): Crystal form B
- Crystal form (XRPD) ([2]; suspension in Water, 50° C.): Crystal form B
- Crystal form (XRPD) ([2]; suspension in n-Heptane, 25° C.): Crystal form A
- Crystal form (XRPD) ([2]; suspension in n-Heptane, 50° C.): Crystal form A
- Crystal form (XRPD)/85° C. ([2]; suspension in n-Heptane): Crystal form A
- crystal form when stirred in solvent ([2]; toluene or n-heptane at 25-85° C.): remained stable
- Crystal form (XRPD) ([3]; good solvent Dichloromethane, poor solvent Acetone): Crystal form A
- Crystal form (XRPD) ([3]; good solvent Dichloromethane, poor solvent Acetonitrile): Crystal forms A + B
- Crystal form (XRPD) ([3]; good solvent Dichloromethane, poor solvent Ethanol): Crystal form A
- Crystal form (XRPD) ([3]; good solvent Dichloromethane, poor solvent Ethyl acetate): Crystal forms A + B
- Crystal form (XRPD) ([3]; good solvent Dichloromethane, poor solvent Tetrahydrofuran): Crystal forms A + B
- Crystal form (XRPD) ([3]; good solvent Dimethyl sulfoxide, poor solvent Acetone): Clear solution
- Crystal form (XRPD) ([3]; good solvent Dimethyl sulfoxide, poor solvent Acetonitrile): Clear solution
- Crystal form (XRPD) ([3]; good solvent Dimethyl sulfoxide, poor solvent Ethanol): Clear solution
- Crystal form (XRPD) ([3]; good solvent Dimethyl sulfoxide, poor solvent Ethyl acetate): Clear solution
- Crystal form (XRPD) ([3]; good solvent Dimethyl sulfoxide, poor solvent Tetrahydrofuran): Clear solution
- Crystal form (XRPD) ([3]; good solvent Methanol, poor solvent Acetone): Clear solution
- Crystal form (XRPD) ([3]; good solvent Methanol, poor solvent Acetonitrile): Clear solution
- Crystal form (XRPD) ([3]; good solvent Methanol, poor solvent Ethyl acetate): Clear solution
- Crystal form (XRPD) ([3]; good solvent Methanol, poor solvent Tetrahydrofuran): Clear solution
- Crystal form (XRPD) ([3]; good solvent N,N-Dimethylformamide, poor solvent Acetone): Clear solution
- Crystal form (XRPD) ([3]; good solvent N,N-Dimethylformamide, poor solvent Acetonitrile): Clear solution
- Crystal form (XRPD) ([3]; good solvent N,N-Dimethylformamide, poor solvent Ethanol): Clear solution
- Crystal form (XRPD) ([3]; good solvent N,N-Dimethylformamide, poor solvent Ethyl acetate): Clear solution
- Crystal form (XRPD) ([3]; good solvent N,N-Dimethylformamide, poor solvent Tetrahydrofuran): Clear solution
- Crystal form result by XRPD test ([4]; 25° C./60% RH, 1 month): Crystal form A
- Crystal form result by XRPD test ([4]; 25° C./60% RH, 2 months): Crystal form A
- Crystal form result by XRPD test ([4]; 25° C./60% RH, 3 months): Crystal form A
- Crystal form result by XRPD test ([4]; 25° C./60% RH, 6 months): Crystal form A
- Crystal form result by XRPD test ([4]; 25° C./60% RH, 5 days): Crystal form A
- Crystal form result by XRPD test ([4]; 25° C./60% RH, 10 days): Crystal form A
- Crystal form result by XRPD test ([4]; 40° C./75% RH, 1 month): Crystal form A
- Crystal form result by XRPD test ([4]; 40° C./75% RH, 2 months): Crystal form A
- Crystal form result by XRPD test ([4]; 40° C./75% RH, 3 months): Crystal form A
- Crystal form result by XRPD test ([4]; 40° C./75% RH, 6 months): Crystal form A
- Crystal form result by XRPD test ([4]; 40° C./75% RH, 5 days): Crystal form A
- Crystal form result by XRPD test ([4]; 40° C./75% RH, 10 days): Crystal form A
- Crystal form result by XRPD test ([4]; 60° C., 1 month): Crystal form A
- Crystal form result by XRPD test ([4]; 60° C., 2 months): Crystal form A
- Crystal form result by XRPD test ([4]; 60° C., 3 months): Crystal form A
- Crystal form result by XRPD test ([4]; 60° C., 6 months): Crystal form A
- Crystal form result by XRPD test ([4]; 60° C., 5 days): Crystal form A
- Crystal form result by XRPD test ([4]; 60° C., 10 days): Crystal form A
- Crystal form result by XRPD test ([4]; 90% RH, 1 month): Crystal form A
- Crystal form result by XRPD test ([4]; 90% RH, 2 months): Crystal form A
- Crystal form result by XRPD test ([4]; 90% RH, 3 months): Crystal form A
- Crystal form result by XRPD test ([4]; 90% RH, 5 days): Crystal form A
- Crystal form result by XRPD test ([4]; 90% RH, 10 days): Crystal form A
- Concentration ([5]; 0.01N hydrochloric acid, 15 min): >6
- Concentration ([5]; 0.01N hydrochloric acid, 2 h): >6
- Concentration ([5]; 0.01N hydrochloric acid, 4 h): >6
- Concentration ([5]; 0.01N hydrochloric acid, 24 h): >6
- Concentration ([5]; Pure water, 15 min): 0.747
- Concentration ([5]; Pure water, 2 h): 4.930
- Concentration ([5]; Pure water, 4 h): 4.657
- Concentration ([5]; Pure water, 24 h): 4.567
- Concentration ([5]; pH 1.2, 15 min): >6
- Concentration ([5]; pH 1.2, 2 h): >6
- Concentration ([5]; pH 1.2, 4 h): >6
- Concentration ([5]; pH 1.2, 24 h): >6
- Concentration ([5]; pH 4.5, 15 min): >6
- Concentration ([5]; pH 4.5, 2 h): 0.044
- Concentration ([5]; pH 4.5, 4 h): 0.046
- Concentration ([5]; pH 6.8, 15 min): 0.003
- Concentration ([5]; pH 6.8, 2 h): 0.005
- Concentration ([5]; pH 6.8, 4 h): 0.005
- Concentration ([5]; pH 6.8, 24 h): 0.015
- Crystal form (XRPD)/85° C. [6]: Crystal form A
Compound: Cc1cc(Nc2ncc(Cl)c(Nc3ccccc3S(=O)(=O)C(C)C)n2)c(OC(C)C)cc1C1=CCN(C2CCOCC2)CC1 [one equivalent of mesylate crystal form A]
